Residues, ends and D or L forms follow the SMILES beside them.
Tests used:
MRSA (NCTC 12493) = assay: Antimicrobial susceptibility assay (MIC/MBC); assay type: cell-based, methicillin-resistant Staphylococcus aureus; settings: for MIC: MHB, 37 °C, 20 h
Protocol: (§1) Six bacteria were tested in this experiment to detect the antimicrobial effects of crabrolin and its derivatives, including S. aureus (NCTC 10788), MRSA (NCTC 12493), E. coli (ATCC 8739), K. pneumoniae (ATCC 43816), E. faecium (NTCC-12697), and P. aeruginosa (ATCC 9027). The tested bacteria were cultured in Mueller Hinton broth medium (MHB) with norfloxacin (20 mg/L) as a positive control. All bacteria were incubated at 37 °C overnight and diluted to 5 × 10^5 CFU/mL before treating with the peptides. Stock solutions of 51,200 µM peptides were prepared in phosphate-buffered saline (PBS) and further diluted by a factor of two to 100 µM. Next, 1 µL of each peptide solution was mixed with 99 µL of bacterial subculture in a 96-well plate, and the plate was incubated at 37 °C for 20 h. After culturing, the absorbance of each well in the 96-well plate was analyzed at 550 nm using a Synergy HT plate reader (BioliseBioTek, Winooski, VT, USA). […] Starting with the MIC value, 10 µL of the solution from each well was dripped onto Mueller Hinton agar (MHA) plates. The plates were cultured at 37 °C for 20 h. After culturing, the lowest concentration with no colony growth was regarded as the MBC.

[1] = system: MRSA (NCTC 12493) biofilm; assay type: cell-based, methicillin-resistant Staphylococcus aureus; settings: for MBIC: biofilm inhibitory rate more than 90%; for MBEC: eradication rate greater than 99.9%
Protocol: (§2) To measure the antibiofilm activity of crabrolin and its derivatives, four drug-resistant biofilm-forming strains, MRSA (NCTC 12493), K. pneumoniae (ATCC 43816), E. faecium (NTCC-12697), and P. aeruginosa (ATCC 9027), were used in this assay. Tryptic soy broth (TSB) (for the Gram-positive bacteria) and Luria–Bertani broth (LB) (for the Gram-negative bacteria) were used to culture the bacteria.
(§3) The mass of the biofilm in this assay was detected by the crystal violet staining method. First, 100 μL of 5 × 10^5 CFU/mL bacteria was incubated with 1 μL of different peptide solutions (ranging from 51200 μM to 100 μM) for 24 h at 37 °C with 200 rpm shaking. After the biofilm formation, 100 μL of PBS was used to rinse the biofilm twice. Next, 100 µL of methanol was added to fix the biofilm, and the biofilm was then dried. Thereafter, 100 μL of 0.1% crystal violet was added and left to stain for 15 min, and then the excess crystal violet was further rinsed by PBS. After the plate had air-dried, 30% glacial acetic acid was added to each well of the plate, and the plate was shaken for 15 min before the optical density (OD) value was measured at 595 nm using a Synergy HT plate reader. The MBIC value refers to the minimum concentration at which the biofilm inhibitory rate was more than 90%.
(§4) Different from measuring the MBIC value, to determine the MBEC value, 100 μL of the bacteria was first added to 96-well plates. After the biofilm was formed, the biofilm was rinsed with PBS twice to remove the planktonic cells, and then different concentrations of the drugs were added to the biofilm (the same as the MBIC assay). The mixture was incubated at 37 °C with shaking at 200 rpm. After 24 h of incubation, the mass of the biofilm was measured in the same way as the MBIC value, and the minimum concentration at which the eradication rate was greater than 99.9% was considered to be the MBEC value.

[2] = system: K. pneumoniae (ATCC 43816) biofilm; assay type: cell-based, Klebsiella pneumoniae; settings: for MBIC: biofilm inhibitory rate more than 90%; for MBEC: eradication rate greater than 99.9%
Protocol: as §2, §3, §4

S. aureus (NCTC 10788) = assay: Antimicrobial susceptibility assay (MIC/MBC); assay type: cell-based, Staphylococcus aureus; settings: for MIC: MHB, 37 °C, 20 h
Protocol: as §1

[3] = system: E. faecium (NTCC12697) biofilm; assay type: cell-based, Enterococcus faecium; settings: for MBIC: biofilm inhibitory rate more than 90%; for MBEC: eradication rate greater than 99.9%
Protocol: as §2, §3, §4

[4] = system: P. aeruginosa (ATCC 9027); assay: Antimicrobial susceptibility assay (MIC/MBC); assay type: cell-based, Pseudomonas aeruginosa; settings: for MIC: MHB, 37 °C, 20 h
Protocol: as §1

Hemolysis assay = assay type: cell-based, horse; settings: horse, erythrocytes (2% suspension); at the peptide's maximum MIC; relative to Triton X-100; read-out: Hemolysis under the Maximum MIC
Protocol: (§5) According to the procedures described in detail in a previous study, the debris and impurities of the erythrocytes were washed with PBS in advance to yield 2% of the erythrocyte suspension, and the drug concentration was diluted from 1024 µM to 2 µM with PBS [53]. The same amounts of the drug and the erythrocyte suspension were mixed and cultured at 37 °C for 2 h; 0.1% Triton X-100 (Sigma-Aldrich, St. Louis, MO, USA) was prepared as a positive control, and PBS was prepared as a negative control. After the incubation, the supernatant was transferred to a 96-well plate and then detected using a Synergy HT plate reader at 570 nm.

horse erythrocytes = assay: Hemolysis assay; assay type: cell-based
Protocol: as §5

E. coli (ATCC 8739) = assay: Antimicrobial susceptibility assay (MIC/MBC); assay type: cell-based, Escherichia coli; settings: for MIC: MHB, 37 °C, 20 h
Protocol: as §1

[5] = system: K. pneumoniae (ATCC 43816); assay: Antimicrobial susceptibility assay (MIC/MBC); assay type: cell-based, Klebsiella pneumoniae; settings: for MIC: MHB, 37 °C, 20 h
Protocol: as §1

[6] = system: human non-small-cell lung cancer line H838; assay: Anti-proliferative assay (MTT); assay type: cell-based; settings: 24 h
Protocol: (§6) The human non-small-cell lung cancer line, H838, the human prostate carcinoma cell line, PC-3, the human glioblastoma astrocytoma, U251MG, the human breast cancer cell line, MCF-7, the human colorectal carcinoma cell line, HCT116, and the human keratinocyte cell line, HaCaT, were used to detect the anti-proliferative effects of the crabrolin and its derivatives in vitro. A total of 8000 cells were seeded in each well of a 96-well plate. After the cells had adhered to the wall, the cells were starved for 4 h. After the starvation, the cells were incubated with different concentrations of the drugs, ranging from 100 µM to 1 nM, for 24 h, with 0.1% Triton X-100 used as a positive control. Next, 10 µL of MTT (3-(4,5-dimethylthiazol-2-yl)-2,5-diphenyltetrazolium bromide) solution (5 mg/mL) was added to each well of the 96-well plate. After 2 h of incubation, 100 μL of DMSO-superseded medium was added to each well to dissolve the formazan crystals. Finally, the absorbance was detected using a Synergy HT plate reader at 570 nm.

[7] = system: human keratinocyte cell line HaCaT; assay: Anti-proliferative assay (MTT); assay type: cell-based; settings: HaCaT (normal keratinocytes), 24 h
Protocol: as §6

[8] = system: human prostate carcinoma cell line PC-3; assay: Anti-proliferative assay (MTT); assay type: cell-based; settings: PC3, MTT, 24 h
Protocol: as §6

[9] = system: human glioblastoma astrocytoma U251MG; assay: Anti-proliferative assay (MTT); assay type: cell-based; settings: 24 h
Protocol: as §6

[10] = system: human breast cancer cell line MCF-7; assay: Anti-proliferative assay (MTT); assay type: cell-based; settings: MCF-7, MTT, 24 h
Protocol: as §6

[11] = system: human colorectal carcinoma cell line HCT-116; assay: Anti-proliferative assay (MTT); assay type: cell-based; settings: HCT-116, MTT, 24 h
Protocol: as §6

[12] = system: P. aeruginosa (ATCC 9027) biofilm; assay type: cell-based, Pseudomonas aeruginosa; settings: for MBIC: biofilm inhibitory rate more than 90%; for MBEC: eradication rate greater than 99.9%
Protocol: as §2, §3, §4

E. faecium (NTCC 12697) = assay: Antimicrobial susceptibility assay (MIC/MBC); assay type: cell-based, Enterococcus faecium; settings: for MIC: MHB, 37 °C, 20 h
Protocol: as §1

| SMILES | MBC (MRSA (NCTC 12493)) | MIC (MRSA (NCTC 12493)) | MBIC [1] | MBEC [1] | MBIC [2] | MBEC [2] | MBC (S. aureus (NCTC 10788)) | MIC (S. aureus (NCTC 10788)) | MBIC [3] | MBEC [3] | MBC [4] | MIC [4] | MBC (E. coli (ATCC 8739)) | MIC (E. coli (ATCC 8739)) | MBC [5] | MIC [5] | IC50 [6] | IC50 [7] | IC50 [8] | IC50 [9] | further results |
| --- | --- | --- | --- | --- | --- | --- | --- | --- | --- | --- | --- | --- | --- | --- | --- | --- | --- | --- | --- | --- | --- |
| CC[C@H](C)[C@H](NC(=O)[C@H](CCCNC(=N)N)NC(=O)[C@@H]1CCCN1C(=O)[C@H](CC(C)C)NC(=O)[C@@H](N)Cc1ccccc1)C(=O)N[C@@H](CC(C)C)C(=O)N[C@@H](CCCNC(=N)N)C(=O)N[C@@H](CCCCN)C(=O)N[C@H](C(=O)N[C@H](C(=O)N[C@H](C(=O)N[C@@H](C)C(=O)N[C@@H](CC(C)C)C(N)=O)[C@@H](C)O)C(C)C)[C@@H](C)CC [Crabrolin-4R, FLPRILRKIVTAL-NH2] (H-FLPRILRKIVTAL-NH2) | 8 µM | 4 µM | 8 µM | 64 µM | 16 µM | 128 µM | 4 µM | 2 µM | 16 µM | > 512 µM | 16 µM | 16 µM | 4 µM | 4 µM | 8 µM | 8 µM | 11.4 µM | 35.8 µM | 18 µM | 25.1 µM | hemolysis at 2 h (Hemolysis assay): 6.18%; HC10 (10% hemolytic concentration) (horse erythrocytes; erythrocytes, 37 °C, 2 h): 62.117 µM; HC50 (50% hemolytic concentration) (horse erythrocytes; erythrocytes, 37 °C, 2 h): 216.266 µM; IC50 [10]: 20.3 µM; IC50 [11]: 47 µM; MBIC [12]: 128 µM; MBEC [12]: 256 µM; MBC (E. faecium (NTCC 12697)): 32 µM; MIC (E. faecium (NTCC 12697)): 16 µM |
| CC[C@H](C)[C@H](NC(=O)[C@H](CC(C)C)NC(=O)[C@@H]1CCCN1C(=O)[C@H](CC(C)C)NC(=O)[C@@H](N)Cc1ccccc1)C(=O)N[C@@H](CC(C)C)C(=O)N[C@@H](CCCNC(=N)N)C(=O)N[C@@H](CCCCN)C(=O)N[C@@H](CCCNC(=N)N)C(=O)N[C@H](C(=O)N[C@H](C(=O)N[C@@H](C)C(=O)N[C@@H](CC(C)C)C(N)=O)[C@@H](C)O)C(C)C [Crabrolin-9R, FLPLILRKRVTAL-NH2] (H-FLPLILRKRVTAL-NH2) | > 512 µM | > 512 µM | >512/>512 µM | >512/>512 µM | >512/>512 µM | >512/>512 µM | > 512 µM | 256 µM | >512/>512 µM | >512/>512 µM | > 512 µM | > 512 µM | > 512 µM | 256 µM | > 512 µM | > 512 µM | 2740 µM | 5850 µM | 354 µM | 1140 µM | Hemolytic activity (in words) (horse erythrocytes; 1 to 512 μM): lost its hemolytic activity; IC50 [10]: 6340 µM; IC50 [11]: 1880 µM; MBIC [12]: >512/>512 µM; MBEC [12]: >512/>512 µM; MBC (E. faecium (NTCC 12697)): > 512 µM; MIC (E. faecium (NTCC 12697)): > 512 µM |
| CC[C@H](C)[C@H](NC(=O)[C@H](CCCNC(=N)N)NC(=O)[C@@H]1CCCN1C(=O)[C@H](CC(C)C)NC(=O)[C@@H](N)CCCNC(=N)N)C(=O)N[C@@H](CC(C)C)C(=O)N[C@@H](CCCNC(=N)N)C(=O)N[C@@H](CCCCN)C(=O)N[C@H](C(=O)N[C@H](C(=O)N[C@@H](CCCNC(=N)N)C(=O)N[C@@H](CCCNC(=N)N)C(=O)N[C@@H](CC(C)C)C(N)=O)C(C)C)[C@@H](C)CC [Crabrolin-AR, RLPRILRKIVRRL-NH2] (H-RLPRILRKIVRRL-NH2) | 8 µM | 4 µM | 8 µM | 512 µM | 8 µM | > 512 µM | 8 µM | 4 µM | 64 µM | > 512 µM | 16 µM | 4 µM | 4 µM | 2 µM | 16 µM | 8 µM | 41.3 µM | 34.9 µM | 28.8 µM | 52 µM | hemolysis at 2 h (Hemolysis assay): 6.63%; HC10 (10% hemolytic concentration) (horse erythrocytes; erythrocytes, 37 °C, 2 h): 59.049 µM; IC50 [10]: 32.5 µM; IC50 [11]: 29.9 µM; MBIC [12]: 16 µM; MBEC [12]: > 512 µM; MBC (E. faecium (NTCC 12697)): 32 µM; MIC (E. faecium (NTCC 12697)): 16 µM |
